Patent US20090036444A1, “5-5-Membered fused heterocyclic compound and use thereof as HCV polymerase inhibitor” (priority 2003, published 2009)
Counter-ions that a name gives are not always drawn. Like-named read-outs stand apart in the source and are kept apart here.

Tests used:
[1] = molecular target: T1, HCV polymerase H544 1a 3X (UniProt P27958); assay: Assay of enzyme (HCV polymerase) inhibitory activity, H544 1a 3X; format: biochemical
T1 construct: fused on or other part: 6 His tag at the C-terminus, for the BK (1b) enzyme

[2] = molecular target: T2, HCV polymerase H544 1b 3X (Hepatitis C virus genotype 1b, UniProt P26663); assay: Assay of enzyme (HCV polymerase) inhibitory activity, H544 1b 3X; format: biochemical, HCV BK strain
T2 construct: a region encoding NS5B (J Virol 1991 March, 65(3), 1105-13, 544 amino acids after deletion of 47 amino acids on the C-terminal); 6 His (C); made in house; host or cells: Escherichia coli
T2 sequence (P26663 2420-2963): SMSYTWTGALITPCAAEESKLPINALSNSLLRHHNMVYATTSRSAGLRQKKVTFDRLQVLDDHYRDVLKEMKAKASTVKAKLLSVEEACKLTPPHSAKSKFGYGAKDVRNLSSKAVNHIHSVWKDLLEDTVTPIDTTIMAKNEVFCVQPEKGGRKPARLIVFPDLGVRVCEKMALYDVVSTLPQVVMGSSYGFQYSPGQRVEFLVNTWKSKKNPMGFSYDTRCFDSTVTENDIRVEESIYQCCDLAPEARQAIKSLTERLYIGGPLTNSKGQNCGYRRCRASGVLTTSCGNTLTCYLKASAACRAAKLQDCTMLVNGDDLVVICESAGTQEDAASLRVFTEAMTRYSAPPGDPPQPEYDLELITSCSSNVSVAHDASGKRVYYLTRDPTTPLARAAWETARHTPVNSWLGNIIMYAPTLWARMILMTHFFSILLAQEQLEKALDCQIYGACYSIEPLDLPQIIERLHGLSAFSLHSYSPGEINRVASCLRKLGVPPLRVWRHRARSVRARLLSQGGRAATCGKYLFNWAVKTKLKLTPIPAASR
Source text: The evaluation of the HCV polymerase inhibitory activity of the compound of the present invention is explained in the following. This polymerase is an enzyme coded for by the non-structural protein region called NS5B on the genome RNA of HCV (EMBO J., 15:12-22, 1996).
Using, as a template, a cDNA clone corresponding to the full length genome RNA of HCV BK strain obtained from the blood of a patient with hepatitis C, a region encoding NS5B (J Virol 1991 March, 65(3), 1105-13, 544 amino acids after deletion of 47 amino acids on the C-terminal) was amplified by PCR. The objective gene was prepared by adding a 6 His tag {base pair encoding 6 continuous histidine (His)} to the 3′ end thereof and transformed to Escherichia coli. The Escherichia coli capable of producing the objective protein was cultured. The obtained cells were suspended in a buffer solution and crushed in a microfluidizer. The supernatant was obtained by centrifugation and applied to various column chromatographys {mono-S, Sephacryl S-200 (Pharmacia)}, inclusive of metal chelate chromatography, to give a standard enzyme product.
Using a synthetic primer designed based on the sequence of HCV genomic 3′ untranslated region, a DNA fragment (148 bp) containing polyU and 3′X sequence was entirely synthesized and cloned into plasmid pBluescript SK II (+) (Stratagene). The cDNA encoding full length NS5B, which was prepared in i) above, was digested with restriction enzyme KpnI to give a cDNA fragment containing the nucleotide sequence of from the restriction enzyme cleavage site to the termination codon. This cDNA fragment was inserted into the upstream of 3′ untranslated region of the DNA in pBluescript SK II(+) and ligated. The about 450 bp inserted DNA sequence was used as a template in the preparation of substrate RNA. This plasmid was cleaved immediately after the 3′X sequence, linearized and purified by phenol-chloroform treatment and ethanol precipitation to give DNA.
RNA was synthesized (37° C., 3 hr) by run-off method using this purified DNA as a template, a promoter of pBluescript SK II(+), MEGAscript RNA synthesis kit (Ambion) and T7 RNA polymerase. DNase I was added and the mixture was incubated for 1 hr. The template DNA was removed by decomposition to give a crude RNA product. This crude product was treated with phenol-chloroform and purified by ethanol precipitation to give the objective substrate RNA.
This RNA was applied to formaldehyde denaturation agarose gel electrophoresis to confirm the quality thereof and preserved at −80° C.
A test substance (compound of the present invention) and a reaction mixture (30 μl) having the following composition were reacted at 25° C. for 90 min. 10% Trichloroacetic acid at 4° C. and 1% sodium pyrophosphate solution (150 μl) were added to this reaction mixture to stop the reaction. The reaction mixture was left standing in ice for 15 min to insolubilize RNA. This RNA was trapped on a glass filter (Whatman GF/C and the like) upon filtration by suction. This filter was washed with a solution containing 1% trichloroacetic acid and 0.1% sodium pyrophosphate, washed with 90% ethanol and dried. A liquid scintillation cocktail (Packard) was added and the radioactivity of RNA synthesized by the enzyme reaction was measured on a liquid scintillation counter.
The HCV polymerase inhibitory activity (IC50) of the compound of the present invention was calculated from the values of radioactivity of the enzyme reaction with and without the test substance.
The results are shown in Table 18, wherein each symbol means that IC50 falls within the following range.
Reaction mixture: HCV polymerase (0.5 μg/ml) obtained in i), substrate RNA (5 μg/ml) obtained in ii), ATP (50 μM), GTP (50 μM), CTP (50 μM), UTP (2 μM), [5,6-^3H] UTP (46 Ci/mmol (Amersham), 1 μCi) 20 mM Tris-HCl (pH 7.5), EDTA (1 mM), MgCl2 (5 mM), NaCl (50 mM), DTT (1 mM), BSA (0.01%)

[3] = read-out: H544 1a 3X IC50, 25° C., 90 min, [5,6-3H]UTP incorporation
[4] = 25° C., 90 min, [5,6-3H]UTP incorporation, read-out: H544 1a 3X IC50

| SMILES | IC50 [1, 3] [nM] | IC50 [2] [nM] | IC50 [1, 4] [nM] |
| --- | --- | --- | --- |
| O=C(O)c1cc2nc(-c3ccc(OCc4cc(N5CCCC5=O)ccc4-c4ccc(Cl)cc4)cc3)n(C3CCCCC3)c2s1 [Example 3, 2-{4-[4′-chloro-4-(2-oxopyrrolidin-1-yl)biphenyl-2-ylmethoxy]phenyl}-3-cyclohexyl-3H-thieno[2,3-d]imidazole-5-carboxylic acid hydrochloride] | 100 to 1000 | < 100 | – |
| O=C(O)c1cc2nc(-c3ccc(OCc4cc(N5CCCC5=O)ccc4N4CCOCC4)cc3)n(C3CCCCC3)c2s1 [Example 5, 3-cyclohexyl-2-{4-[2-morpholino-5-(2-oxopyrrolidin-1-yl)benzyloxy]phenyl}-3H-thieno[2,3-d]imidazole-5-carboxylic acid] | – | 100 to 1000 | 100 to 1000 |
| Cn1c(-c2ccc(OCc3ccccc3)cc2)c(C2CCCCC2)c2sc(C(=O)O)cc21 [Example 12, 5-(4-benzyloxyphenyl)-6-cyclohexyl-4-methyl-4H-thieno[3,2-b]pyrrole-2-carboxylic acid] | – | 100 to 1000 | 100 to 1000 |
| CN(C)C(=O)Cn1c(-c2ccc(OCc3ccccc3)cc2)c(C2CCCCC2)c2sc(C(=O)O)cc21 [Example 14, 5-(4-benzyloxyphenyl)-6-cyclohexyl-4-dimethylcarbamoylmethyl-4H-thieno[3,2-b]pyrrole-2-carboxylic acid] | – | < 100 | < 100 |
| Cn1c(-c2ccc(OCc3cc(N4CCCC4=O)ccc3N3CCOCC3)cc2)c(C2CCCCC2)c2sc(C(=O)O)cc21 [Example 15, 6-cyclohexyl-4-methyl-5-{4-[2-morpholino-5-(2-oxopyrrolidin-1-yl)benzyloxy]phenyl}-4H-thieno[3,2-b]pyrrole-2-carboxylic acid hydrochloride] | – | < 100 | < 100 |
| CC(=O)N(C)c1ccc(N2CCOCC2)c(COc2ccc(-c3c(C4CCCCC4)c4sc(C(=O)O)cc4n3C)cc2)c1 [Example 17, 5-{4-[5-(N-acetyl-N-methylamino)-2-morpholinobenzyloxy]phenyl}-6-cyclohexyl-4-methyl-4H-thieno[3,2-b]pyrrole-2-carboxylic acid hydrochloride] | < 100 | < 100 | – |
| Cn1c(-c2ccc(OCc3cc(N4CCCC4=O)ccc3N3CCN(S(C)(=O)=O)CC3)cc2)c(C2CCCCC2)c2sc(C(=O)O)cc21 [Example 18, 6-cyclohexyl-5-{4-[2-(4-methanesulfonylpiperazin-1-yl)-5-(2-oxopyrrolidin-1-yl)benzyloxy]phenyl}-4-methyl-4H-thieno[3,2-b]pyrrole-2-carboxylic acid hydrochloride] | – | < 100 | < 100 |
| Cn1c(-c2ccc(OCc3cc(N)ccc3N3CCN(S(C)(=O)=O)CC3)cc2)c(C2CCCCC2)c2sc(C(=O)O)cc21 [Example 19, 5-(4-[5-amino-2-(4-methanesulfonylpiperazin-1-yl)benzyloxy]phenyl)-6-cyclohexyl-4-methyl-4H-thieno[3,2-b]pyrrole-2-carboxylic acid hydrochloride] | – | < 100 | < 100 |
| CC(=O)N(C)c1ccc(N2CCN(S(C)(=O)=O)CC2)c(COc2ccc(-c3c(C4CCCCC4)c4sc(C(=O)O)cc4n3C)cc2)c1 [Example 20, 5-{4-[5-(N-acetyl-N-methylamino)-2-(4-methanesulfonylpiperazin-1-yl)benzyloxy]phenyl}-6-cyclohexyl-4-methyl-4H-thieno[3,2-b]pyrrole-2-carboxylic acid hydrochloride] | – | < 100 | < 100 |
| COc1ccc(-c2c(C3CCCCC3)c3sc(C(=O)O)cc3n2CC(=O)N(C)C)cc1 [Example 21, 6-cyclohexyl-4-dimethylcarbamoylmethyl-5-(4-methoxyphenyl)-4H-thieno[3,2-b]pyrrole-2-carboxylic acid] | – | < 100 | 100 to 1000 |
| Cn1c(-c2ccc(OCc3cc(S(C)(=O)=O)ccc3N3CCOCC3)cc2)c(C2CCCCC2)c2sc(C(=O)O)cc21 [Example 23, 6-cyclohexyl-5-[4-(5-methanesulfonyl-2-morpholinobenzyloxy)phenyl]-4-methyl-4H-thieno[3,2-b]pyrrole-2-carboxylic acid hydrochloride] | – | < 100 | < 100 |
| CCOC(=O)c1cc2c(s1)c(C1CCCCC1)c(-c1ccc(OCc3cc(N4CCCC4=O)ccc3N3CCOCC3)cc1)n2C [Example 24, ethyl 6-cyclohexyl-4-methyl-5-{4-[2-morpholino-5-(2-oxopyrrolidin-1-yl)benzyloxy]phenyl}-4H-thieno[3,2-b]pyrrole-2-carboxylate hydrochloride] | – | 100 to 1000 | 100 to 1000 |
| COc1ccc(-c2c(C3CCCCC3)c3sc(C(=O)O)cc3n2CC(=O)N2CCOCC2)cc1 [Example 25, 6-cyclohexyl-5-(4-methoxyphenyl)-4-morpholinocarbonylmethyl-4H-thieno[3,2-b]pyrrole-2-carboxylic acid] | – | < 100 | 100 to 1000 |
| CCN1CCN(C(=O)Cn2c(-c3ccc(OC)cc3)c(C3CCCCC3)c3sc(C(=O)O)cc32)CC1 [Example 26, 6-cyclohexyl-4-(4-ethylpiperazin-1-yl)carbonylmethyl-5-(4-methoxyphenyl)-4H-thieno[3,2-b]pyrrole-2-carboxylic acid] | – | < 100 | 100 to 1000 |
| COc1ccc(-c2c(C3CCCCC3)c3sc(C(=O)O)cc3n2CC(=O)N2CCC(N(C)C)CC2)cc1 [Example 27, 6-cyclohexyl-4-(4-dimethylaminopiperidino)carbonylmethyl-5-(4-methoxyphenyl)-4H-thieno[3,2-b]pyrrole-2-carboxylic acid] | – | < 100 | < 100 |
| CC(C)C(=O)Nc1ccc(N2CCOCC2)c(COc2ccc(-c3c(C4CCCCC4)c4sc(C(=O)O)cc4n3C)cc2)c1 [Example 29, 6-cyclohexyl-5-[4-(5-isobutyrylamino-2-morpholinobenzyloxy)phenyl]-4-methyl-4H-thieno[3,2-b]pyrrole-2-carboxylic acid hydrochloride] | – | < 100 | < 100 |
| CC(C)C(=O)N(C)c1ccc(N2CCOCC2)c(COc2ccc(-c3c(C4CCCCC4)c4sc(C(=O)O)cc4n3C)cc2)c1 [Example 30, 6-cyclohexyl-5-{4-[5-(N-isobutyryl-N-methylamino)-2-morpholinobenzyloxy]phenyl}-4-methyl-4H-thieno[3,2-b]pyrrole-2-carboxylic acid hydrochloride] | – | < 100 | < 100 |
| Cn1c(-c2ccc(OCc3ccccc3N3CCOCC3)cc2)c(C2CCCCC2)c2sc(C(=O)O)cc21 [Example 31, 6-cyclohexyl-4-methyl-5-[4-(2-morpholinobenzyloxy)phenyl]-4H-thieno[3,2-b]pyrrole-2-carboxylic acid hydrochloride] | – | < 100 | < 100 |
| CC(C(=O)N(C)c1ccc(N2CCOCC2)cc1)n1c(-c2ccc(OCc3ccccc3)cc2)c(C2CCCCC2)c2sc(C(=O)O)cc21 (stereo not shown) [Example 60, 5-(4-benzyloxyphenyl)-6-cyclohexyl-4-{1-[N-methyl-N-(4-morpholinophenyl)carbamoyl]ethyl}-4H-thieno[3,2-b]pyrrole-2-carboxylic acid hydrochloride] | – | 100 to 1000 | – |
